Test results reported in patent US20060287316A1, “METHOD FOR IMPROVING PHARMACOKINETICS OF PROTEASE INHIBITORS AND PROTEASE INHIBITOR PRECURSORS” (priority 2005, published 2006).

Assays:
[1] = Partition coefficient (LogP), octanol / phosphate buffer; format: physicochemical; conditions: octanol / phosphate buffer pH 7.4
Excerpt: The concentration of the compounds in the phases was detected by LC-MS.

[2] = Plasma concentration after single oral dose in rats (in vivo cleavage of the phosphate group); set-up: species or system male Sprague-Dawley rats; conditions: 50 mg/Kg po, vehicle Mix, 3 rats
Method: To assess the extent of in vivo cleavage of the phosphate group from the putative compounds, PL-100, PL-462 (based on PL-100), PL-337 and PL-515 (based on PL-337) compounds were administered po (per os, (i.e., by mouth)) (50 mg/kg) to male Sprague-Dawley rats and their plasma concentration measured at different time intervals post-administration.
All test articles (PL-100, PL-462, PL-337 and PL-515) were prepared in different vehicle at the final concentration of 25 mg/mL. The vehicle composition is as follows: (1) 20% ethanol; 50% propylene glycol; 0.05% w/v Tween 20 and water (Mix); (2) PBS buffer (PBS).
Test articles were administered to male Sprague-Dawley rats at a single oral dose of 50 mg/kg. Each article was tested in three rats. Blood samples (0.2-0.3 mL) were collected at the post-dose time of 10, 20, 40, 60, 120, 180 and 360 minutes. The harvested blood was centrifuged to isolate plasma. The resulting plasma was separated and stored at −70° C.
Plasma samples together with standards and quality control samples were treated to precipitate proteins, then analyzed by HPLC-MS, for the presence of PL-462, PL-100, PL-515 and PL-337.

With `COC(=O)N[C@H](C(=O)NCCCC[C@@H](CO)N(CC(C)C)S(=O)(=O)c1ccc(N)c(F)c1)C(c1ccccc1)c1ccccc1` [PL-337, (1-{5-[(4-amino-3-fluoro-benzenesulfonyl)-isobutyl-amino]-6-hydroxy-hexylcarbamoyl}-2,2-diphenyl-ethyl)-carbamic acid methyl ester] the logP [1] was 3.8, the AUC [2] was 1.180 ± 0.196 μg/hr * ml and the Cmax ([2]; male, Sprague-Dawley, rat, plasma) was 681 ± 131 nM. It also gave a Tmax ([2]; male, Sprague-Dawley, rat, plasma, read-out: Tmax (converted)) of 1 h.
